From publication PMC6606642, “Inhibition of Cathepsin S Reduces Lacrimal Gland Inflammation and Increases Tear Flow in a Mouse Model of Sjögren’s Syndrome” (Scientific Reports, 2019)

Target: Cathepsin S (human recombinant CTSS) (Homo sapiens, UniProt P25774)
Assay: fluorescence CTSS activity assay kit with recombinant enzyme
Format: biochemical

Sequence of Cathepsin S (human recombinant CTSS) (P25774 115-331): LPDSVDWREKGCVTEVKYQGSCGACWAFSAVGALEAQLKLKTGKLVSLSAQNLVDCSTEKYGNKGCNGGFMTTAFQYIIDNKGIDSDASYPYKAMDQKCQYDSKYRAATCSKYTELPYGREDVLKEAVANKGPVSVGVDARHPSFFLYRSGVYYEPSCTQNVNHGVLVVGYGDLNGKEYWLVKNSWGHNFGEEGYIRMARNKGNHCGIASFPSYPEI

Structure (SMILES)	IC50 [nM]
CC(C)C[C@H](NC(=O)[C@H](Cc1ccccc1)NC(=O)OCc1ccccc1)C(=O)C=O [Z-FL-hydrate, Z-FL-COCHO-hydrate]	262 ± 59.3
CC(C)C[C@H](NC(=O)[C@H](Cc1ccccc1)NC(=O)OCc1ccccc1)C(=O)C=O [Z-FL, Z-FL-COCHO]	172 ± 32.7
